Data: publication PMC12443583 (Nature Medicine, 2025)

Legend:
p-MEK (Ser222) = assay: p-MEK in tumor biopsies, antibody bead-based Luminex; format: in vivo, human; conditions: post-treatment versus pretreatment biopsy
p-ERK (Thr185–Try187) = assay: p-ERK in tumor biopsies, antibody bead-based Luminex; format: in vivo, human; conditions: post-treatment versus pretreatment biopsy
LGSOC = conditions: 23 (binimetinib), cited from earlier work; for progression-free interval / response rate: phase 2 and phase 3 trials, ref 24 (selumetinib), 25 (trametinib); for discontinuation rates because of AEs: ref 25 (trametinib)

SMILES	phosphorylation of p-MEK in tumor biopsies (p-MEK (Ser222))	phosphorylation of p-ERK in tumor biopsies (p-ERK (Thr185–Try187))	progression-free interval (LGSOC)	response rate (LGSOC)	discontinuation rates because of AEs (LGSOC)
CNS(=O)(=O)Nc1nccc(Cc2c(C)c3ccc(Oc4ncccn4)cc3oc2=O)c1F [avutometinib]	reduction	reduction	–	–	–
Cn1cnc2c(F)c(Nc3ccc(Br)cc3F)c(C(=O)NOCCO)cc21 [binimetinib]	–	–	9.1 months	16%	31%
Cn1cnc2c(F)c(Nc3ccc(Br)cc3Cl)c(C(=O)NOCCO)cc21 [selumetinib]	–	–	11 months	15%	–
CC(=O)Nc1cccc(-n2c(=O)n(C3CC3)c(=O)c3c(Nc4ccc(I)cc4F)n(C)c(=O)c(C)c32)c1 [trametinib]	–	–	13 months	26%	36%
